Tests used:
Test in all cases: Bliss excess, mean over the matrix (fraction); higher = more synergy
[1] = system: SW13 (Other Solid Carcinomas)
Method in brief: (§1)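 Cell lines in DMEM/F12 or RPMI with 10% FBS were plated in 1536-well plates, held 24 hours at 37°C, 5% CO2, then given two-drug dose matrices for 72 hours (DMSO typically 0.2%). Viability was read by CellTiter-Glo 2.0 luminescence and scaled as inhibition from 0 (vehicle wells) to 1 (blank wells). Combination Emax is the second-highest inhibition in the matrix; Bliss excess is observed combination effect minus expected EA + EB − EA·EB, EA and EB being single-agent effects.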

[2] = system: MLMA (Other Blood Carcinomas)
Method in brief: as §1

[3] = system: LU-65 (Non-Small Cell Lung Carcinoma)
Method in brief: as §1

[4] = system: AMO-1 (Plasma Cell Myeloma)
Method in brief: as §1

[5] = system: EoL-1-cell (Acute Myeloid Leukemia)
Method in brief: as §1

UACC-62 (Melanoma) = system: UACC-62 (Melanoma)
Method in brief: as §1

[6] = system: Hs-766T (Pancreatic Carcinoma)
Method in brief: as §1

[7] = system: KYSE-450 (Esophageal Squamous Cell Carcinoma)
Method in brief: as §1

[8] = system: MIA-PaCa-2 (Pancreatic Carcinoma)
Method in brief: as §1

TGW (Neuroblastoma) = system: TGW (Neuroblastoma)
Method in brief: as §1

[9] = system: NCI-H358 (Lung Adenocarcinoma)
Method in brief: as §1

[10] = system: NCI-H727 (Other Solid Carcinomas)
Method in brief: as §1

[11] = system: PANC-04-03 (Pancreatic Carcinoma)
Method in brief: as §1

EW-24 (Ewing's Sarcoma) = system: EW-24 (Ewing's Sarcoma)
Method in brief: as §1

D-263MG (Glioblastoma) = system: D-263MG (Glioblastoma)
Method in brief: as §1

[12] = system: Ca9-22 (Head and Neck Carcinoma)
Method in brief: as §1

[13] = system: Caov-4 (Ovarian Carcinoma)
Method in brief: as §1

ACHN (Kidney Carcinoma) = system: ACHN (Kidney Carcinoma)
Method in brief: as §1

YH-13 (Glioblastoma) = system: YH-13 (Glioblastoma)
Method in brief: as §1

[14] = system: EFM-19 (Breast Carcinoma)
Method in brief: as §1

Row | SMILES | Bliss excess [1] | Bliss excess [2] | Bliss excess [3] | Bliss excess [4] | Bliss excess [5] | Bliss excess (UACC-62 (Melanoma)) | Bliss excess [6] | Bliss excess [7] | Bliss excess [8] | Bliss excess (TGW (Neuroblastoma)) | Bliss excess [9] | Bliss excess [10] | Bliss excess [11] | Bliss excess (EW-24 (Ewing's Sarcoma)) | Bliss excess (D-263MG (Glioblastoma)) | Bliss excess [12] | Bliss excess [13] | Bliss excess (ACHN (Kidney Carcinoma)) | Bliss excess (YH-13 (Glioblastoma)) | Bliss excess [14]
1 | Cc1cc2ncnn2cc1Nc1ncc2c(n1)n(C1CCOCC1)c(=O)n2C [AZD7648] + C[C@@H]1COCCN1C2=NC(=NC(=C2)C3(CC3)[S@](=N)(=O)C)C4=C5C=CNC5=NC=C4 [AZD6738] (first compound max 10 µM, 7x7, partner max 10 µM) | 0.0707 | -0.0289 | -0.0392 | -0.0184 | -0.0123 | 0.0529 | 0.0552 | 0.0281 | -0.0254 | 0.0388 | 0.0099 | 0.0381 | 0.0123 | -0.0023 | -0.0206 | 0.0578 | 0.0087 | -0.0316 | 0.0821 | 0.0323
2 | Cc1cc2ncnn2cc1Nc1ncc2c(n1)n(C1CCOCC1)c(=O)n2C [AZD7648] + O=C(c1cc(Cc2n[nH]c(=O)c3ccccc23)ccc1F)N1CCN(C(=O)C2CC2)CC1 [Olaparib] (first compound max 10 µM, 7x7, partner max 10 µM) | -0.0454 | -0.0087 | -0.0146 | -0.0231 | 0.0142 | -0.0219 | -0.0491 | -0.0635 | -0.0246 | -0.0248 | -0.0179 | -0.0641 | -0.0369 | -0.0449 | -0.0367 | -0.0072 | -0.015 | -0.0243 | -0.0272 | -0.0652
3 | Cc1nc(Nc2ncc(C(=O)Nc3c(C)cccc3Cl)s2)cc(N2CCN(CCO)CC2)n1 [Dasatinib] + CC(=O)Nc1cccc(-n2c(=O)n(C3CC3)c(=O)c3c(Nc4ccc(I)cc4F)n(C)c(=O)c(C)c32)c1 [Trametinib] (first compound max 2 µM, 7x7, partner max 1 µM) | -0.0548 | -0.0324 | -0.112 | 0.058 | -0.0157 | 0.0064 | 0.0971 | -0.0101 | 0.156 | -0.0621 | 0.004 | -0.0357 | 0.0163 | -0.0569 | -0.031 | 0.0313 | -0.125 | -0.0707 | -0.0698 | -0.0957
4 | COc1cc2ncnc(Nc3ccc(F)c(Cl)c3)c2cc1OCCCN1CCOCC1 [Gefitinib] + CC(C)n1c(=O)n(C)c2cnc3cc(F)c(-c4ccc(OCCCN5CCCCC5)nc4)cc3c21 [AZD1390] (first compound max 10 µM, 7x7, partner max 0.3 µM) | -0.0233 | -0.0358 | -0.0614 | -0.0485 | -0.0385 | -0.0358 | -0.0908 | -0.0177 | -0.0307 | -0.0438 | -0.0493 | -0.108 | -0.0853 | -0.0759 | -0.0401 | 0.0579 | -0.0591 | -0.0829 | -0.0848 | -0.0722
5 | COc1cc2c(cc1OCCCCCOc1cc3c(cc1OC)C(=O)N1C=C(C)C[C@H]1C=N3)N=C[C@@H]1CC(C)=CN1C2=O [SG3199] + O=C(c1cc(Cc2n[nH]c(=O)c3ccccc23)ccc1F)N1CCN(C(=O)C2CC2)CC1 [Olaparib] (first compound max 0.001 µM, 7x7, partner max 10 µM) | -0.0184 | -0.0269 | 0.0047 | -0.0342 | -0.0348 | -0.0663 | -0.0433 | -0.041 | -0.0415 | -0.0446 | -0.0353 | -0.0726 | -0.046 | -0.0272 | -0.018 | -0.0113 | -0.0267 | -0.0192 | -0.0282 | -0.063
6 | N#Cc1cnc(Nc2cc(NC[C@H]3CNCCO3)c(C(F)(F)F)cn2)cn1 [SRA737] + C=CCn1c(=O)c2cnc(Nc3ccc(N4CCN(C)CC4)cc3)nc2n1-c1cccc(C(C)(C)O)n1 [AZD1775] (first compound max 10 µM, partner max 1 µM) | 0.0091 | -0.0114 | 0.0233 | 0.0986 | -0.0097 | 0.0048 | 0.0161 | 0.119 | 0.139 | -0.0382 | -0.0155 | 0.0694 | 0.0182 | 0.0488 | 0.0096 | 0.154 | 0.0532 | -0.0285 | 0.0804 | -0.044
7 | N#Cc1cnc(Nc2cc(NC[C@H]3CNCCO3)c(C(F)(F)F)cn2)cn1 [SRA737] + CCc1c2c(nc3ccc(O)cc13)-c1cc3c(c(=O)n1C2)COC(=O)[C@]3(O)CC [SN-38] (first compound max 10 µM, 7x7, partner max 0.3 µM) | -0.0192 | -0.061 | -0.0191 | -0.0225 | -0.0375 | 0.0364 | -0.0095 | 0.157 | 0.0599 | 0.0191 | 0.0057 | 0.0316 | -0.0583 | -0.0859 | 0.0777 | 0.0252 | -0.0488 | -0.0867 | 0.0231 | 0.107
8 | N#Cc1cnc(Nc2cc(NC[C@H]3CNCCO3)c(C(F)(F)F)cn2)cn1 [SRA737] + Nc1ccn([C@@H]2O[C@H](CO)[C@@H](O)C2(F)F)c(=O)n1 [Gemcitabine] (first compound max 10 µM, 7x7, partner max 0.3 µM) | 0.0367 | -0.0924 | 0.0224 | 0.0377 | 0.0316 | 0.019 | 0.003 | 0.114 | 0.124 | -0.0301 | -0.0054 | -0.0046 | -0.0036 | -0.0984 | 0.0556 | 0.122 | 0.0158 | -0.0356 | 0.0032 | 0.0489
9 | N#Cc1cnc(Nc2cc(NC[C@H]3CNCCO3)c(C(F)(F)F)cn2)cn1 [SRA737] + O=c1[nH]cc(F)c(=O)[nH]1 [5-Fluorouracil] (first compound max 10 µM, 7x7, partner max 20 µM) | -0.026 | -0.0455 | 0.0104 | -0.0004 | -0.0084 | -0.0561 | 0.0415 | -0.0348 | -0.0352 | -0.0389 | -0.0743 | 0.001 | 0.0102 | 0.0101 | -0.0456 | 0.0135 | -0.0494 | -0.0547 | 0.0119 | 0.0189
10 | C[C@@H](c1ccc2nccn2c1)n1nnc2ncc(-c3cnn(C)c3)nc21 [Savolitinib] + CC1(C)CCC(CN2CCN(c3ccc(C(=O)NS(=O)(=O)c4ccc(NCC5CCOCC5)c([N+](=O)[O-])c4)c(Oc4cnc5[nH]ccc5c4)c3)CC2)=C(c2ccc(Cl)cc2)C1 [Venetoclax] (first compound max 1 µM, 7x7, partner max 1 µM) | -0.0363 | -0.022 | -0.0738 | 0.0036 | 0.0273 | -0.0111 | -0.0681 | -0.0471 | -0.0355 | -0.0486 | -0.0564 | -0.0536 | -0.0736 | -0.0739 | -0.0797 | -0.0231 | -0.0839 | -0.0443 | 0.0179 | -0.0273
11 | C[C@@H](c1ccc2nccn2c1)n1nnc2ncc(-c3cnn(C)c3)nc21 [Savolitinib] + Cc1c2c(nn1C)CSCc1cc(n(C)n1)CSc1cc(c3ccccc3c1)OCCCc1c(C(=O)O)n(C)c3c-2c(Cl)ccc13 [AZD5991] (first compound max 1 µM, 7x7, partner max 1 µM) | -0.0541 | -0.0122 | -0.0437 | 0.0251 | 0.0703 | 0.0285 | -0.0404 | -0.0186 | -0.007 | -0.0467 | -0.0538 | -0.0099 | -0.0216 | -0.0237 | -0.0571 | -0.01 | -0.011 | -0.0103 | 0.023 | -0.0236

Reference: the supplement of paper PMC11061612
